Results: US20260070902A1, “SULFONYL DERIVATIVES AS CCR6 INHIBITORS” (Hoffmann-La Roche Inc., priority 2022, published 2026)
Values belong to the molecule of their own block, whether it stands above or below them.

Key:
human CCR6 = target: T1, human CCR6 (Homo sapiens, UniProt P51684); experiment: Human CCR6-CRE reporter assay; assay type: cell-based; set-up: The second construct contained the open reading frame of human CCR6 in the pUNO1 backbone; host or cells: 293FT cells; details: relative -Log IC50; 293FT cells transfected with human CCR6 and CRE-luciferase reporter; 6 μM Forskolin, 6 nM CCL20; 5 h
T1 sequence (P51684 1-374): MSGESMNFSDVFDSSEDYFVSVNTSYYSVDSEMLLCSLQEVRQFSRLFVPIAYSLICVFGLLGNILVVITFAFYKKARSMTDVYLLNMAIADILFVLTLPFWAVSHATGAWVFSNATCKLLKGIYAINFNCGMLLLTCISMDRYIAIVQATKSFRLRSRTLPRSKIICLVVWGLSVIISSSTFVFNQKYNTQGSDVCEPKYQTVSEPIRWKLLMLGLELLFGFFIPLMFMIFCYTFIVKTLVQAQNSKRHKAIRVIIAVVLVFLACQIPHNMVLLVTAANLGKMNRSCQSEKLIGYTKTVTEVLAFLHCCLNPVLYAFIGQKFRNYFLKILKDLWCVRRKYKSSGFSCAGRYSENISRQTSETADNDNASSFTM
How it was run: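 293FT cells transiently co-transfected with human CCR6 and a CRE-luc2P reporter, used 48 h later. Compounds incubated with cells in medium containing 6 μM Forskolin and 6 nM CCL20 (assay-medium levels), 0.1% DMSO final, 5 h at 37° C; luminescence read, relative −Log IC50 from four-parameter fit.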

Human CD4+ T cells = experiment: CD4+ T cells chemotaxis assay towards CCL20; assay type: cell-based; details: Homo sapiens, CD4+ T cell, 3 h, relative -Log IC50, human CD4+ T cells stimulated with anti-CD3 and anti-CD28, migration towards 150 ng/ml CCL20
Excerpt: CD4+ T Cells Chemotaxis Assay Towards CCL20
Human CD4+ T cells were isolated from buffy coats of healthy donors using a CD4+ T Cell Isolation Kit (Miltenyi Biotec130-096-533). Isolated T cells were stimulated overnight with anti-CD3 and anti-CD28 antibodies (Biolegend 300314/302934) in growth medium (RPMI1640, 10% heat-inactivated FBS, 1× pen/strep (Gibco 15140)). For the chemotaxis assay, Corning Transwell plates were used with a pore size of 5 m (Corning 3388). T cells were counted and diluted to 6*10^6 cells/ml in chemotaxis medium (RPMI1640, 1% BSA, pen/strep). Compounds were four-fold serially diluted in DMSO. Further dilutions were made in chemotaxis medium. Cells were incubated with test compounds for 30 min at 37° C. prior to initiation of the assay (3*10^6 cells/ml). Final DMSO concentration in the assay was 0.2%. Wells of the Transwell plates were filled with 200 μl chemotaxis medium containing 150 ng/ml CCL20 (R&D systems 360-MP). 50 μl of the cell/compound suspension was added to the inserts of the Transwell plates (150,000 cells/insert). The Transwell plates were placed in an incubator at 37° C., 5% CO2 for 3 h. After 3 h, the number of migrated cells was quantified using CellTiter Glo (Promega). Percentage inhibition values were calculated based on the low and high signal obtained with 0.2% DMSO in chemotaxis medium without and with CCL20, respectively. The relative −Log IC50 was determined with GraphPad Prism 9 using a four-parameter dose-response model.

Structure (SMILES): N#Cc1c[nH]c2ccc(-c3ccc(S(=O)(=O)[C@H]4CC[C@H](Nc5ccc(S(F)(F)(F)(F)F)cc5)CC4)cc3)cc12 [Example 7, 5-(4-{[trans-4-{[4-(pentafluoro-λ^6-sulfanyl)phenyl]Amino}cyclohexyl]sulfonyl}phenyl)-1H-indole-3-carbonitrile]
IC50 (human CCR6): 0.0398 µM
IC50 (Human CD4+ T cells): 0.000501 µM

Structure (SMILES): O=C1NCc2ccc(-c3ccc(S(=O)(=O)[C@H]4CC[C@H](Nc5ccc(S(F)(F)(F)(F)F)cc5)CC4)cc3)cc21 [Example 9, 6-(4-{[trans-4-{[4-(pentafluoro-λ^6-sulfanyl)phenyl]Amino}cyclohexyl]sulfonyl}phenyl)-2,3-dihydro-1H-isoindol-1-one]
IC50 (human CCR6): 0.0794 µM
IC50 (Human CD4+ T cells): 0.01 µM

Structure (SMILES): O=S(=O)(c1ccc(-c2ccc3nccn3c2)cc1)[C@H]1CC[C@H](Nc2ccc(S(F)(F)(F)(F)F)cc2)CC1 [Example 12, 4-(pentafluoro-λ^6-sulfanyl)-N-[trans-4-(4-{imidazo[1,2-a]pyridin-6-yl}benzenesulfonyl)cyclohexyl]aniline]
IC50 (human CCR6): 0.0794 µM
IC50 (Human CD4+ T cells): 0.0158 µM

Structure (SMILES): N#Cc1cnc2ccc(-c3ccc(S(=O)(=O)N4CCC(Nc5ccc(S(F)(F)(F)(F)F)cc5)CC4)cc3)cn12 [Example 25, 6-{4-[(4-{[4-(pentafluoro-λ^6-sulfanyl)phenyl]Amino}piperidin-1-yl)sulfonyl]phenyl}imidazo[1,2-a]pyridine-3-carbonitrile]
IC50 (human CCR6): 0.0398 µM
IC50 (Human CD4+ T cells): 0.00501 µM

Structure (SMILES): O=c1[nH]nc2ccc(-c3ccc(S(=O)(=O)N4CCC(Nc5ccc(S(F)(F)(F)(F)F)cc5)CC4)cc3)cn12 [Example 32, 6-{4-[(4-{[4-(pentafluoro-λ^6-sulfanyl)phenyl]Amino}piperidin-1-yl)sulfonyl]phenyl}-2H,3H-[1,2,4]triazolo[4,3-a]pyridin-3-one]
IC50 (human CCR6): 0.1 µM
IC50 (Human CD4+ T cells): 0.00398 µM

Structure (SMILES): N#Cc1n[nH]c2ccc(-c3ccc(S(=O)(=O)[C@H]4CC[C@H](Nc5ccc(S(F)(F)(F)(F)F)cc5)CC4)cc3)cc12 [Example 38, 5-(4-{[trans-4-{[4-(pentafluoro-λ^6-sulfanyl)phenyl]Amino}cyclohexyl]sulfonyl}phenyl)-1H-indazole-3-carbonitrile]
IC50 (human CCR6): 0.0398 µM
IC50 (Human CD4+ T cells): 0.000631 µM

Structure (SMILES): Cc1nc2ccc(-c3ccc(S(=O)(=O)[C@H]4CC[C@H](Nc5ccc(S(F)(F)(F)(F)F)cc5)CC4)cc3)cn2n1 [Example 40, 4-(pentafluoro-λ^6-sulfanyl)-N-[trans-4-(4-{2-methyl-[1,2,4]triazolo[1,5-a]pyridin-6-yl}benzenesulfonyl)cyclohexyl]aniline]
IC50 (human CCR6): 0.1 µM
IC50 (Human CD4+ T cells): 0.01 µM

Structure (SMILES): O=S(=O)(c1ccc(-c2ccc(O)nc2)cc1)[C@H]1CC[C@H](Nc2ccc(S(F)(F)(F)(F)F)cc2)CC1 [Example 56, 5-(4-{[trans-4-{[4-(pentafluoro-λ^6-sulfanyl)phenyl]Amino}cyclohexyl]sulfonyl}phenyl)pyridin-2-ol]
IC50 (human CCR6): 0.0631 µM
IC50 (Human CD4+ T cells): 0.0158 µM

Structure (SMILES): O=S(=O)(c1ccc(-c2ccc3nccn3c2)nc1)N1CCC(Nc2ccc(S(F)(F)(F)(F)F)cc2)CC1 [Example 77, 1-[(6-{imidazo[1,2-a]pyridin-6-yl}pyridin-3-yl)sulfonyl]-N-[4-(pentafluoro-λ^6-sulfanyl)phenyl]piperidin-4-amine]
IC50 (human CCR6): 0.501 µM
IC50 (Human CD4+ T cells): 0.126 µM

Structure (SMILES): N#Cc1cnc2ccc(-c3ccc(S(=O)(=O)N4CCC(Nc5cccc(S(F)(F)(F)(F)F)c5)CC4)cc3)cn12 [Example 81, 6-{4-[(4-{[3-(pentafluoro-λ^6-sulfanyl)phenyl]Amino}piperidin-1-yl)sulfonyl]phenyl}imidazo[1,2-a]pyridine-3-carbonitrile]
IC50 (human CCR6): 0.126 µM
IC50 (Human CD4+ T cells): 0.158 µM

Structure (SMILES): O=S(=O)(c1ccc(-c2ccc3nccn3c2)cc1)N1CCC(Nc2cccc(S(F)(F)(F)(F)F)c2)CC1 [Example 82, 1-(4-{imidazo[1,2-a]pyridin-6-yl}benzenesulfonyl)-N-[3-(pentafluoro-λ^6-sulfanyl)phenyl]piperidin-4-amine]
IC50 (human CCR6): 0.2 µM
IC50 (Human CD4+ T cells): 0.316 µM

Further lines, results first:

IC50 (human CCR6): 0.126 µM
IC50 (Human CD4+ T cells): 0.0316 µM
Structure (SMILES): N=S(=O)(c1ccc(-c2ccnc(C(N)=O)c2)cc1)[C@H]1CC[C@H](Nc2ccc(S(F)(F)(F)(F)F)cc2)CC1 (stereo partly drawn) [Example 91, 4-(4-{[trans-4-{[4-(pentafluoro-λ^6-sulfanyl)phenyl]Amino}cyclohexyl]sulfonimidoyl}phenyl)pyridine-2-carboxamide]

IC50 (human CCR6): 0.2 µM
IC50 (Human CD4+ T cells): 0.126 µM
Structure (SMILES): N=S(=O)(c1ccc(-c2ccnc(C(N)=O)c2)cc1)N1CCC(Nc2ccc(S(F)(F)(F)(F)F)cc2)CC1 (stereo not shown) [Example 125, 4-{4-[(4-{[4-(pentafluoro-λ^6-sulfanyl)phenyl]Amino}piperidin-1-yl)sulfonimidoyl]phenyl}pyridine-2-carboxamide]

IC50 (human CCR6): 0.0794 µM
IC50 (Human CD4+ T cells): 0.02 µM
Structure (SMILES): COC1CC2(CCN(c3ccc(S(=O)(=O)N4CCC(Nc5ccc(S(F)(F)(F)(F)F)cc5)CC4)cc3)CC2)C1 [Example 132, 1-(4-{2-methoxy-7-azaspiro[3.5]nonan-7-yl}benzenesulfonyl)-N-[4-(pentafluoro-λ^6-sulfanyl)phenyl]piperidin-4-amine]

IC50 (human CCR6): 0.0398 µM
IC50 (Human CD4+ T cells): 0.00398 µM
Structure (SMILES): O=C1NC(=O)C2(CCN(c3ccc(S(=O)(=O)N4CCC(Nc5ccc(S(F)(F)(F)(F)F)cc5)CC4)cc3)CC2)N1 [Example 133, 8-{4-[(4-{[4-(pentafluoro-λ^6-sulfanyl)phenyl]amino}piperidin-1-yl)sulfonyl]phenyl}-1,3,8-triazaspiro[4.5]decane-2,4-dione]

IC50 (human CCR6): 0.158 µM
IC50 (Human CD4+ T cells): 0.01 µM
Structure (SMILES): O=C1NCCC12CCN(c1ccc(S(=O)(=O)N3CCC(Nc4ccc(S(F)(F)(F)(F)F)cc4)CC3)cc1)CC2 [Example 134, 8-{4-[(4-{[4-(pentafluoro-λ^6-sulfanyl)phenyl]amino}piperidin-1-yl)sulfonyl]phenyl}-2,8-diazaspiro[4.5]decan-1-one]

IC50 (human CCR6): 0.126 µM
IC50 (Human CD4+ T cells): 0.0251 µM
Structure (SMILES): O=C1NC2(CCN(c3ccc(S(=O)(=O)N4CCC(Nc5ccc(S(F)(F)(F)(F)F)cc5)CC4)cc3)CC2)CO1 [Example 135, 8-{4-[(4-{[4-(pentafluoro-λ^6-sulfanyl)phenyl]amino}piperidin-1-yl)sulfonyl]phenyl}-3-oxa-1,8-diazaspiro[4.5]decan-2-one]

IC50 (human CCR6): 0.126 µM
IC50 (Human CD4+ T cells): 0.2 µM
Structure (SMILES): O=S(=O)(c1ccc(N2CCC3(CC2)COC3)cc1)N1CCC(Nc2ccc(S(F)(F)(F)(F)F)cc2)CC1 [Example 136, 1-(4-{2-oxa-7-azaspiro[3.5]nonan-7-yl}benzenesulfonyl)-N-[4-(pentafluoro-λ^6-sulfanyl)phenyl]piperidin-4-amine]

IC50 (human CCR6): 0.2 µM
IC50 (Human CD4+ T cells): 0.126 µM
Structure (SMILES): O=S(=O)(c1ccc(N2CC3CCC(C2)O3)cc1)N1CCC(Nc2ccc(S(F)(F)(F)(F)F)cc2)CC1 [Example 137, 1-(4-{8-oxa-3-azabicyclo[3.2.1]octan-3-yl}benzenesulfonyl)-N-[4-(pentafluoro-λ^6-sulfanyl)phenyl]piperidin-4-amine]

IC50 (human CCR6): 0.0631 µM
IC50 (Human CD4+ T cells): 0.00251 µM
Structure (SMILES): CC(C)c1nnc2cnc(-c3ccc(S(=O)(=O)N4CCC(Nc5ccc(S(F)(F)(F)(F)F)cc5)CC4)cc3)cn12 [Example 140, N-[4-(pentafluoro-λ^6-sulfanyl)phenyl]-1-{4-[3-(propan-2-yl)-[1,2,4]triazolo[4,3-a]pyrazin-6-yl]benzenesulfonyl}piperidin-4-amine]
